This note sets out measurements from patent US20260364184A1, “COMPOUND BASED ON OXOISOINDOLINYL-SUBSTITUTED TETRAHYDROPYRIMIDINE-DIONE AND USE THEREOF” (GLUETACS THERAPEUTICS (SHANGHAI) CO., LTD., priority 2023, published 2026).

Test [1] relates to Human Multiple myeloma cell line (MM.1S). The test can be described thus: Inhibition of MM.1S cell proliferation (CellTiter luminescent viability). In kind it is cell-based. To be noted: Homo sapiens, MM1.S, Table IG1, FAK inhibitor-based, 96 hours; for inhibition at 0.01 µM: 10 nM, read-out: Inhibition Rate at 10 nM (%); for inhibition at 0.5 µM: 500 nM, read-out: Inhibition Rate at 500 nM (%). The gist of the method: (§1)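 IC50 is fitted from luminescent viability (CellTiter-Meiluncell) curves. Nine-point, 5-fold dilution series (top stock 2000 μM) are added at 0.5 μL per 100 μL medium to cells plated the day before, with growth at 37 °C and 5% CO2.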

Test [2] has as its system Human myeloid monocytic leukemia cell line (MV-4-11). The test can be described thus: Inhibition of MV-4-11 cell proliferation (CellTiter luminescent viability). In kind it is cell-based. Conditions: Homo sapiens, MV4-11, Table IG2, FAK inhibitor-based, 96 hours; for inhibition at 0.01 µM: MV-4-11, 10 nM, read-out: Inhibition Rate at 10 nM (%); for inhibition at 0.5 µM: MV-4-11, 500 nM, read-out: Inhibition Rate at 500 nM (%). The gist of the method: as §1

Test [3] deals with Human breast cancer cell line (MDA-MB-231). The test is described as follows: Inhibition of MDA-MB-231 cell proliferation (CellTiter luminescent viability). It is filed as cell-based. Conditions: Table IG3, FAK inhibitor-based, 96 hours; for inhibition at 0.01 µM: MDA-MB-231, 10 nM, read-out: Inhibition Rate at 10 nM (%); for inhibition at 0.5 µM: MDA-MB-231, 500 nM, read-out: Inhibition Rate at 500 nM (%). How it is done: The tumor cells used herein were cultured in a cell culture medium listed in table 3 at 37 °C in an incubator with 5% CO2. Prior to experimentation, all cell lines used were correctly identified by STR profiling, and tested negative for mycoplasma contamination using a mycoplasma detection kit through routine screenings.
The IC50 values of the compounds of the present disclosure (including the compounds in Table 1, Table 2, and Examples 1-468) were determined using the CellTiter-Meiluncell Luminescent Cell Viability Assay Kit from Dalian Meilun Biotech Co., Ltd. The detailed procedure is as follows: Tumor cells were seeded in 96-well cell culture plates at the densities specified in Table 4. On the following day, the test compounds of the present disclosure were subjected to serial dilution. The dilution can be performed according to one of the following two methods: • (1) The first dilution method: The test compounds of the present disclosure (including the compounds in Table 1, Table 2, and Examples 1-468) were subjected to 5-fold serial dilutions starting from a highest concentration of 2000 μM, resulting in a total of 9 concentrations from high to low (2000, 400, 80, 16, 3.2, 0.64, 0.128, 0.0256, 0.00512 μM). Subsequently, 0.5 μL of the test compound dilution was transferred into the 96-well plate containing the cells, with each well containing 100 μL of cell culture medium. […] Into the 96-well plate, the diluted test compounds and corresponding detection reagents were added, resulting in final test compound concentrations of 500 nM and 10 nM, respectively. The experimental procedure is described below using the diluted 2 μM test compound as an example.
0.5 μL of the aforementioned diluted compound of the present disclosure (including the compounds in Table 1, Table 2, and Examples 1-468) was added to the seeded cells in 100 μL of medium, yielding a final test compound concentration of 10 nM. After the cells were treated with the compounds of the present disclosure for a specified period, the cell viability assay reagent was added to the culture medium according to the kit's instructions to determine cell viability. […] All controls were treated using the same procedure as the compounds of the present disclosure. The growth inhibition curves for the compounds of the present disclosure were plotted using Prism GraphPad software, and the IC50 values were calculated therefrom.

Test [4] deals with T1, FAK (Homo sapiens, UniProt Q05397).
T1 construct: expression of target proteins in cells; endogenous in cells
T1 sequence (Q05397 whole entry): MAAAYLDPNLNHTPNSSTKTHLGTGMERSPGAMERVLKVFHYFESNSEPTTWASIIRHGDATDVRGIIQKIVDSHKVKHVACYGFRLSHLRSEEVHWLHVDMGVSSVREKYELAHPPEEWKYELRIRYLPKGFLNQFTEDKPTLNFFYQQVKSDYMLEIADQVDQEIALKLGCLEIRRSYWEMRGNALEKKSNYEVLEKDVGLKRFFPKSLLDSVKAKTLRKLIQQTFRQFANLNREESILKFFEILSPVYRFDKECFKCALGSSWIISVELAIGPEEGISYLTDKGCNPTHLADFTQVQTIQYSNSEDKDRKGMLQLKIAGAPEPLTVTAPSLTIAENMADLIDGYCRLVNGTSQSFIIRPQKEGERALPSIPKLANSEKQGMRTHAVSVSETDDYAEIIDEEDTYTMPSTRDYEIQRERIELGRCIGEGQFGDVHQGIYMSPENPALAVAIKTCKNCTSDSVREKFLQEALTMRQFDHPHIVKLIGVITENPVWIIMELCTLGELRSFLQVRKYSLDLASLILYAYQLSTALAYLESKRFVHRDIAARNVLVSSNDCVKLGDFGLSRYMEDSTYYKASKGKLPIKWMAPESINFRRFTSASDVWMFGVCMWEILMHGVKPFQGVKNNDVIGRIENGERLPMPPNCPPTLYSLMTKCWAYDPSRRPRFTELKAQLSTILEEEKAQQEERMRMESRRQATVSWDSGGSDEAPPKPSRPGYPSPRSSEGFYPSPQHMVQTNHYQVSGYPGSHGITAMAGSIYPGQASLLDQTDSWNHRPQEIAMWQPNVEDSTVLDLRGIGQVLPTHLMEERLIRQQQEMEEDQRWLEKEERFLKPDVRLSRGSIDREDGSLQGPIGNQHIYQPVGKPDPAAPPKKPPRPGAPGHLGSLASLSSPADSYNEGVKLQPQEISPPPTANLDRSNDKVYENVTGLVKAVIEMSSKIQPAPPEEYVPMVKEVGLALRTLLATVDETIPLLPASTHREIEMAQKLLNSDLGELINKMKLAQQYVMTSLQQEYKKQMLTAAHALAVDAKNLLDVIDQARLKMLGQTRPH
The test is described as follows: Western blot degradation of FAK. To be noted: A549 Cell; 24 hours. In kind it is cell-based. How it is done:
(§2) Conventional Western blot assay was performed to evaluate the effects of the compounds of the present disclosure on the expression of target proteins in cells.
(§3) (1) Cell Seeding and Protein Harvesting: The selected cells were processed according to the cell seeding procedure and protein harvesting procedure in Table II-2.
(§4) (2) To the collected supernatant, 5×SDS sample loading buffer was added, followed by denaturation at 95 °C for 5 minutes. The denatured samples were then separated by SDS-PAGE electrophoresis on a polyacrylamide gel. Proteins were transferred to a nitrocellulose membrane (0.45 μm NC membrane), blocked with blocking buffer at room temperature for 1 hour, and subjected to antibody incubation and development procedures according to the antibody manufacturer's instructions (Cell Signaling Technology).
(§5) Half-Maximal Degradation Concentration value (the drug concentration required for degrading proteins by 50%, abbreviated as DC50) reads method: comparing the grayscale values of Western blot bands from drug-treated samples with those from blank DMSO-treated controls, and identifying the drug concentration range at which the grayscale value is half that of the DMSO-treated control bands.
(§6) DC50 values can be calculated using ImageJ software to measure grayscale values of Western blot bands from drug-treated samples. The concentration-response curve is fitted to estimate the drug concentration corresponding to half the grayscale value.
(§7) Target protein remaining (%) refers to the percentage of target protein remaining in cells after treatment with protein degrader compounds.
(§8) Calculation method for target protein remaining (%): Use ImageJ software to measure grayscale values of Western blot bands from drug (protein degrader)-treated samples. The grayscale value of drug-treated bands is divided by that of internal control protein bands, and the resulting quotient is normalized to obtain the relative percentage of remaining target protein after protein degrader treatment.
(§9) Target protein degradation rate (%)=1−target protein remaining (%).
(In general: A western blot detects proteins with antibodies after separation by electrophoresis.)

The target of test [5] is T2, human Cereblon WT GST-tagged protein (CRBN) (Homo sapiens, UniProt Q96SW2).
T2 construct: purchased CISBIO 64BDCRBNPEH
T2 sequence (Q96SW2 whole entry): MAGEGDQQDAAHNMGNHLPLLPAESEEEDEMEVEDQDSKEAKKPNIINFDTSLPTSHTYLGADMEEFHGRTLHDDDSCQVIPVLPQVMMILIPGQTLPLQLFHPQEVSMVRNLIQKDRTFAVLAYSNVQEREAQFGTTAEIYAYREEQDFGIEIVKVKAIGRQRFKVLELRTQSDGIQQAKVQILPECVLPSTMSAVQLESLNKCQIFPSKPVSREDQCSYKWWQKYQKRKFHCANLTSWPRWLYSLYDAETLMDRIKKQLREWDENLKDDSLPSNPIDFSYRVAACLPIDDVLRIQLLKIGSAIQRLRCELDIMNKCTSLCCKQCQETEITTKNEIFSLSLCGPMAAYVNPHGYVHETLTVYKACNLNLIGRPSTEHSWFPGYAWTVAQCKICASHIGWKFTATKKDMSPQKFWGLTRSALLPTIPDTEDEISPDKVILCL
The test is described as follows: CRBN binding by HTRF (Cereblon binding kit). The gist of the method:
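GST-tagged human Cereblon WT was incubated 3 h at room temperature with compound, thalidomide-Re tracer and Eu anti-GST antibody. Final compound concentrations were 10 to 0.00064 µM (7 points) or 2 and 0.5 µM. Inhibition rate was calculated from HTRF 665/620 nm ratios versus solvent and blank controls.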

In test [6] the target is T3, EZH2 (Homo sapiens, UniProt Q15910+Q96SW2).
T3 construct: expression of target proteins in cells; endogenous in cells
T3 sequence (Q15910 whole entry): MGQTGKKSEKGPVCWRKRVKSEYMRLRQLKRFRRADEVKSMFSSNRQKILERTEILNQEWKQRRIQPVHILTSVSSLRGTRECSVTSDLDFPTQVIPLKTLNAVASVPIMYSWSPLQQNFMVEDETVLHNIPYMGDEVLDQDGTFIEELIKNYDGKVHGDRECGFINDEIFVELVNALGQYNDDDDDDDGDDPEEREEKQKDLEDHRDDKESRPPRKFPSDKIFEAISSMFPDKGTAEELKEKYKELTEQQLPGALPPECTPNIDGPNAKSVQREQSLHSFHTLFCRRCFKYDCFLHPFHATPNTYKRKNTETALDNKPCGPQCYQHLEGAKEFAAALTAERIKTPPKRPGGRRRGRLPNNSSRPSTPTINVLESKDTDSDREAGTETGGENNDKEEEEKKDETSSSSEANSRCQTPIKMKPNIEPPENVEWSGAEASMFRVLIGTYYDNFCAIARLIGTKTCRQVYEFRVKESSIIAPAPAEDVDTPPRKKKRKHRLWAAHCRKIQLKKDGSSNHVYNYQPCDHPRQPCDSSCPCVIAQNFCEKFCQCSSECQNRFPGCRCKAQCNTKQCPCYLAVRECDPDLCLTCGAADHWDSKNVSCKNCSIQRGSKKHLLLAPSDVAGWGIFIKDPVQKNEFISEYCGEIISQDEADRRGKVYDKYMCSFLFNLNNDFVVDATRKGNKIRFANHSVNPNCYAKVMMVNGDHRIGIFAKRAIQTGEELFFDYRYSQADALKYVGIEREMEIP
T3 sequence (O75530 whole entry partner): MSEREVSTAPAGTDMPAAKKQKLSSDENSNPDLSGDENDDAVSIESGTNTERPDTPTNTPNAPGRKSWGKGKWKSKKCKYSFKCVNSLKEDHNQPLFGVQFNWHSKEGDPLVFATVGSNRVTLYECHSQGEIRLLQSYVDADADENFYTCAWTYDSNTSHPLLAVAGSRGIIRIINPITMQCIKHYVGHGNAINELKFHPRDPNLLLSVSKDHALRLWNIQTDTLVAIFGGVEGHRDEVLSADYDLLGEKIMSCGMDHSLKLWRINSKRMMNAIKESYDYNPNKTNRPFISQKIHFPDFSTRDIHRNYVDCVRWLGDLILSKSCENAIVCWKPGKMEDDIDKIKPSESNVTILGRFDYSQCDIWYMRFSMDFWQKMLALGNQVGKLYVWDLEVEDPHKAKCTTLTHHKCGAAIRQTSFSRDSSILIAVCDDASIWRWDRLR
T3 sequence (Q15022 whole entry partner): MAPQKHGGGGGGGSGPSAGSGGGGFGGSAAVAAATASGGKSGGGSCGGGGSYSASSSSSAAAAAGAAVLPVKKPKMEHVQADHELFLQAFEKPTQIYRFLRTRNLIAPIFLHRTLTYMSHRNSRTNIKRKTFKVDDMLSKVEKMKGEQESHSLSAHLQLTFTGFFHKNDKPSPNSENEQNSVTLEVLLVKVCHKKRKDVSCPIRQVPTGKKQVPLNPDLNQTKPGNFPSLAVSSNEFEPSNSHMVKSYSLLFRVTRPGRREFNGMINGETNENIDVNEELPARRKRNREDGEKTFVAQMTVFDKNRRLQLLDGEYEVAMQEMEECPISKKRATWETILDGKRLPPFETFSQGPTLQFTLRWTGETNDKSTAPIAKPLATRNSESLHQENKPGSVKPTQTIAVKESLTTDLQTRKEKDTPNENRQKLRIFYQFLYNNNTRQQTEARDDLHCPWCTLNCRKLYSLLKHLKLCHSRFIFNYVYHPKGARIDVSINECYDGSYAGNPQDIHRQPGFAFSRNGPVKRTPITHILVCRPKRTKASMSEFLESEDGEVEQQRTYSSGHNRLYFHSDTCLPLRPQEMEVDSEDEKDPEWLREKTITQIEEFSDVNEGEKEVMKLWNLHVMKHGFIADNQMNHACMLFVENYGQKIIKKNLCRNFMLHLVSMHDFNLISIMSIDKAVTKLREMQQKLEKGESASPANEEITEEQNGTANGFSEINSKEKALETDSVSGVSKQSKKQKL
T3 sequence (Q96SW2 whole entry): as the sequence (Q96SW2 whole entry) above
T3 sequence (Q16531 whole entry partner): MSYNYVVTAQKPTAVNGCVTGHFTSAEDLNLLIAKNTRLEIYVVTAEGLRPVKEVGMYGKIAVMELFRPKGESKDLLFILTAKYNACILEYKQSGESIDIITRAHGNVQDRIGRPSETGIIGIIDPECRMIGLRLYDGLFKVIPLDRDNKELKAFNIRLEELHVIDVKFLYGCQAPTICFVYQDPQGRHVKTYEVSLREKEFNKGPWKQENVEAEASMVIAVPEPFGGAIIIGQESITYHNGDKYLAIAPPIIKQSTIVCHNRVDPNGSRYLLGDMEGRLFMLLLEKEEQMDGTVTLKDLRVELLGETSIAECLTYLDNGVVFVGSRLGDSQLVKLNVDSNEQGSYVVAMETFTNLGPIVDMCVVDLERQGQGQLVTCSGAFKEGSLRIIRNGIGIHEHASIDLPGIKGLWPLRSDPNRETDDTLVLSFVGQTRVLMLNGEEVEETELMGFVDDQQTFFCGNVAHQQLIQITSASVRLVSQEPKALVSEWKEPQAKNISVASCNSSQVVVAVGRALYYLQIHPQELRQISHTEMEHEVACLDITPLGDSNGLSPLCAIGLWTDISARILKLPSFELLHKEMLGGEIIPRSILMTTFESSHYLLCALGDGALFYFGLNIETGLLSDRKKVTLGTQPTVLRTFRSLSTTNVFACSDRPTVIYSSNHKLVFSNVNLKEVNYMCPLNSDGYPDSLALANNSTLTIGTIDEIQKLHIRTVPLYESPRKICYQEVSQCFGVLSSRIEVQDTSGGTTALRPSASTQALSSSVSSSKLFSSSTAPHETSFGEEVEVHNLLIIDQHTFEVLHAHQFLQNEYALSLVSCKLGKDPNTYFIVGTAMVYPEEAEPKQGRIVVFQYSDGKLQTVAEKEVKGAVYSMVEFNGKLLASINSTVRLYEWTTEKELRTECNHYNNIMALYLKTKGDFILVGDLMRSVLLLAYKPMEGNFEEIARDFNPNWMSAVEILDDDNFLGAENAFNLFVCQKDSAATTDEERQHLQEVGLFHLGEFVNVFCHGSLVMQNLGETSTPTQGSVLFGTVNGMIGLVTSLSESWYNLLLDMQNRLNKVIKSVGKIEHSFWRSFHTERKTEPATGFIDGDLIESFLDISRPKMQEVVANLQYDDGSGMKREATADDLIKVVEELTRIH
The test can be described thus: Western blot degradation of EZH2. It is filed as cell-based. Conditions: hPBMC Cell; 24 hours. How it is done:
as §2, §3, §4, §5, §6, §7, §8, §9

With `CN(c1nccnc1CNc1nc(Nc2ccc(N3CCN(CC4CCN(c5ccc6c(c5)C(=O)N(N5CCC(=O)NC5=O)C6=O)CC4)CC3)cc2)ncc1C(F)(F)F)S(C)(=O)=O` [GT-07468, N-(3-(((2-((4-(4-((1-(2-(2,4-dioxotetrahydropyrimidin-1(2H)-yl)-1,3-dioxoisoindolin-5-yl)piperidin-4-yl)methyl)piperazin-1-yl)phenyl)amino)-5-(trifluoromethyl)pyrimidin-4-yl)amino)methyl)pyrazin-2-yl)-N-methylmethanesulfonamide], the inhibition at 0.01 µM lay within 20 to 30% in test [1], 30 to 40% in test [2] and 20 to 30% in test [3]. The inhibition at 0.5 µM was 80 to 100% in test [1], 80 to 100% in test [2] and 50 to 60% in test [3]. Moreover, in test [4], the “Degradation of substrate protein FAK (substrate protein remaining %)” value was “A (0%≤substrate protein remaining %≤80%)”.
With `CN(c1nccnc1CNc1nc(Nc2ccc(N3CCN(CC4CCN(c5cccc6c5C(=O)N(N5CCC(=O)NC5=O)C6=O)CC4)CC3)cc2)ncc1C(F)(F)F)S(C)(=O)=O` [GT-07469, N-(3-(((2-((4-(4-((1-(2-(2,4-dioxotetrahydropyrimidin-1(2H)-yl)-1,3-dioxoisoindolin-4-yl)piperidin-4-yl)methyl)piperazin-1-yl)phenyl)amino)-5-(trifluoromethyl)pyrimidin-4-yl)amino)methyl)pyrazin-2-yl)-N-methylmethanesulfonamide], in test [2], the inhibition at 0.01 µM is 0 to 5% and the inhibition at 0.5 µM lay within 80 to 100%. Further, in test [3], the inhibition at 0.01 µM is 30 to 40% and the inhibition at 0.5 µM fell in the range of 50 to 60%. Besides, in test [4], the “Degradation of substrate protein FAK (substrate protein remaining %)” value was “A (0%≤substrate protein remaining %≤80%)”.
Turning to `CS(=O)(=O)c1cccc(CNc2nc(Nc3ccc(N4CCN(Cc5ccc6c(c5)CN(N5CCC(=O)NC5=O)C6=O)CC4)cc3)ncc2C(F)(F)F)c1` [GT-07514, 1-(5-((4-(4-((4-((3-(methylsulfonyl)benzyl)amino)-5-(trifluoromethyl)pyrimidin-2-yl)amino)phenyl)piperazin-1-yl)methyl)-1-oxoisoindolin-2-yl)dihydropyrimidine-2,4 (1H,3H)-dione], in test [2], the inhibition at 0.01 µM lay within 30 to 40% and the inhibition at 0.5 µM was 80 to 100%. Also, the “Degradation of substrate protein FAK (substrate protein remaining %)” value in test [4] is reported as “A (0%≤substrate protein remaining %≤80%)”. Besides, the “Inhibition Rate at 0.5 μM (%)” value in test [5] (0.5 μM) was “a3 (30% < a3 ≤ 40%)”. Also, the “Inhibition Rate at 2 μM (%)” value in test [5] (2 μM) is listed as “a5 (53% < a5 ≤ 60%)”.
Consider `CNC(=O)c1ccccc1Nc1cc(Nc2ccc(N3CCC(N(C)Cc4ccc5c(c4)CN(N4CCC(=O)NC4=O)C5=O)CC3)cc2OC)ncc1C(F)(F)F` [GT-07647, 2-((2-((4-(4-(((2-(2,4-dioxotetrahydropyrimidin-1(2H)-yl)-1-oxoisoindolin-5-yl)methyl)(methyl)amino)piperidin-1-yl)-2-methoxyphenyl)amino)-5-(trifluoromethyl)pyridin-4-yl)amino)-N-methylbenzamide], for which the inhibition at 0.01 µM in test [1] is 20 to 30%; in test [2] it was 40 to 50%; in test [3], 40 to 50%. The inhibition at 0.5 µM is 40 to 60% in test [1], 80 to 100% in test [2] and 70 to 80% in test [3]. Also, in test [4], the “Degradation of substrate protein FAK (substrate protein remaining %)” value is “A (0%≤substrate protein remaining %≤80%)”.
In the case of `CCCc1cc(C)[nH]c(=O)c1CNC(=O)c1cc(-c2ccc(N3CCN(Cc4ccc5c(c4)CN(N4CCC(=O)NC4=O)C5=O)CC3)nc2)cc2c1cnn2C(C)C` [GT-08418, 6-(6-(4-((2-(2,4-dioxotetrahydropyrimidin-1(2H)-yl)-1-oxoisoindolin-5-yl)methyl)piperazin-1-yl)pyridin-3-yl)-1-isopropyl-N-((6-methyl-2-oxo-4-propyl-1,2-dihydropyridin-3-yl)methyl)-1H-indazole-4-carboxamide], the “Degradation of substrate protein EZH2 (substrate protein remaining %)” value in test [6] was “A (0%≤substrate protein remaining %≤80%)”.
As to `CCCc1cc(C)[nH]c(=O)c1CNC(=O)c1cc(-c2ccc(N3CCN(Cc4ccc5c(c4)C(=O)N(N4CCC(=O)NC4=O)C5=O)CC3)nc2)cc2c1cnn2C(C)C` [GT-08419, 6-(6-(4-((2-(2,4-dioxotetrahydropyrimidin-1(2H)-yl)-1,3-dioxoisoindolin-5-yl)methyl)piperazin-1-yl)pyridin-3-yl)-1-isopropyl-N-((6-methyl-2-oxo-4-propyl-1,2-dihydropyridin-3-yl)methyl)-1H-indazole-4-carboxamide], the “Degradation of substrate protein EZH2 (substrate protein remaining %)” value in test [6] is listed as “A (0%≤substrate protein remaining %≤80%)”.
With `CCCc1cc(C)[nH]c(=O)c1CNC(=O)c1cc(-c2ccc(N3CCC(N(C)Cc4ccc5c(c4)CN(N4CCC(=O)NC4=O)C5=O)CC3)nc2)cc2c1cnn2C(C)C` [GT-08420, 6-(6-(4-(((2-(2,4-dioxotetrahydropyrimidin-1(2H)-yl)-1-oxoisoindolin-5-yl)methyl)(methyl)amino)piperidin-1-yl)pyridin-3-yl)-1-isopropyl-N-((6-methyl-2-oxo-4-propyl-1,2-dihydropyridin-3-yl)methyl)-1H-indazole-4-carboxamide], the “Degradation of substrate protein EZH2 (substrate protein remaining %)” value in test [6] is “A (0%≤substrate protein remaining %≤80%)”.
The same measure, in the same setting: the result for `CCN(c1cc(-c2ccc(N3CCN(C4CCN(CC5CCN(c6cccc7c6C(=O)N(N6CCC(=O)NC6=O)C7=O)CC5)CC4)CC3)cc2)cc(C(=O)NCc2c(C)cc(C)[nH]c2=O)c1C)C1CCOCC1` [GT-08525, N-((4,6-dimethyl-2-oxo-1,2-dihydropyridin-3-yl)methyl)-4′-(4-(1-((1-(2-(2,4-dioxotetrahydropyrimidin-1(2H)-yl)-1,3-dioxoisoindolin-4-yl)piperidin-4-yl)methyl)piperidin-4-yl)piperazin-1-yl)-5-(ethyl(tetrahydro-2H-pyran-4-yl)amino)-4-methyl-[1,1′-biphenyl]-3-carboxamide] reads “A (0%≤substrate protein remaining %≤80%)”.

Usually inhibition stands for the relative decrease from the control value, in per cent.
